Test results reported in US8148378B2, “Pyridazine derivatives and their use as inhibitors of stearoyl-CoA desaturase-1 activity in a mammal” (Xenon Pharmaceuticals Inc., priority 2003, dated 2012).
Where two headings read alike, the source gives them in different places.

Columns and labels:
[1] = target: T1, Stearoyl-CoA Desaturase (SCD) (Mus musculus, UniProt P13516); experiment: Stearoyl-CoA desaturase inhibition using mouse liver microsomes; assay type: biochemical; settings: for Residual Activity (% remaining, 1 μM): % SCD enzyme activity remaining at 1 μM test compound; for Residual Activity (% remaining, 10 μM): % SCD enzyme activity remaining at 10 μM test compound
T1 construct: from tissue; host or cells: liver microsomes of male ICR mice on a high-carbohydrate, low fat diet
T1 sequence (P13516 1-355): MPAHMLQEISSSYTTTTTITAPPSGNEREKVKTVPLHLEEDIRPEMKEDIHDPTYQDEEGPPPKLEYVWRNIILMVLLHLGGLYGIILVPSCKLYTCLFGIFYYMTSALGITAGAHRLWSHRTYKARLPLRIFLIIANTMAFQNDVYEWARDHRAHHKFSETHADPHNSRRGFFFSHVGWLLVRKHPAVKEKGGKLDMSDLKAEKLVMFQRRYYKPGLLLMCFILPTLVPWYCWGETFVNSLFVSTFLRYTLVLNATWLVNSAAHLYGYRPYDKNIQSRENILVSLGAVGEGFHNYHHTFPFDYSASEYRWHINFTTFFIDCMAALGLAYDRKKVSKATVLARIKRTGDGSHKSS
Description: Preparation of Mouse Liver Microsomes:
The absence of mitochondrial contamination is enzymatically assessed.
Incubation of Mouse Liver Microsomes with Test Compounds: […]

[2] = target: T2, SCD (Homo sapiens, UniProt O00767); experiment: Cell IC50 of SCD inhibitors (Table 1, no method given); assay type: cell-based; settings: cell assay, cell type not stated
T2 sequence (O00767 1-359): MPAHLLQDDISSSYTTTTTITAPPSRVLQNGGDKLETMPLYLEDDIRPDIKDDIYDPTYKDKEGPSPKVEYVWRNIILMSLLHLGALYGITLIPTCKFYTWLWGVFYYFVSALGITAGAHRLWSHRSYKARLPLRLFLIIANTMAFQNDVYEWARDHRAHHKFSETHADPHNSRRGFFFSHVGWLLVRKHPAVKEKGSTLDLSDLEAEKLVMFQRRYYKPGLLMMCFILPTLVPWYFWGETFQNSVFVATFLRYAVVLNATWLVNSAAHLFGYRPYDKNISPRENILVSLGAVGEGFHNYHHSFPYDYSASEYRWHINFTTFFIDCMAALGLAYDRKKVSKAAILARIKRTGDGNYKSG

[3] = projected from residual activity at 1 and 10 μM, read-out: Projected IC50
[4] = microsomal assay, read-out: Microsome IC50

SMILES	Residual Activity (% remaining, 1 μM) [1]	Residual Activity (% remaining, 10 μM) [1]	IC50 [1, 3]	IC50 [2]	IC50 [1, 4]
CN(CCc1ccccc1)c1ccc(N2CCN(C(=O)c3ccccc3C(F)(F)F)CC2)nn1 [Example 1, {4-[6-(METHYLPHENETHYLAMINO)PYRIDAZIN-3-YL]PIPERAZIN-1-YL}-(2-TRIFLUOROMETHYLPHENYL)METHANONE]	86.210 % remaining	57.955 % remaining	10000 to 50000 nM	–	–
CCCS(=O)(=O)Nc1ccc(N2CCN(C(=O)c3ccccc3C(F)(F)F)CC2)nn1 [Example 2, PROPANE-1-SULFONIC ACID {6-[4-(2-TRIFLUOROMETHYLBENZOYL)PIPERAZIN-1-YL]PYRIDAZIN-3-YL}AMIDE]	–	–	–	10500 nM	6250 nM
O=C(c1ccccc1C(F)(F)F)N1CCN(c2ccc(S(=O)(=O)CCc3ccccc3)nn2)CC1 [Example 3, {4-[6-(2-PHENYLETHANESULFONYL)PYRIDAZIN-3-YL]PIPERAZIN-1-YL}-(2-TRIFLUOROMETHYL-PHENYL)METHANONE]	–	–	–	111 nM	67 nM
O=C(c1ccccc1C(F)(F)F)N1CCN(c2ccc([S+]([O-])CCc3ccccc3)nn2)CC1 (stereo not drawn) [Example 4]	–	–	–	175 nM	67 nM
O=C(c1ccccc1C(F)(F)F)N1CCN(c2ccc(OCCc3ccccc3)nn2)CC1 [Example 5, [4-(6-PHENETHYLOXYPYRIDAZIN-3-YL)PIPERAZIN-1-YL]-(2-TRIFLUOROMETHYL-PHENYL)METHANONE]	–	–	–	4300 nM	4550 nM
O=C(c1ccccc1C(F)(F)F)N1CCN(c2ccc(SCCc3ccccc3)nn2)CC1 [Example 6, [4-(6-PHENETHYLSULFANYLPYRIDAZIN-3-YL)PIPERAZIN-1-YL](2-TRIFLUOROMETHYLPHENYL)METHANONE]	–	–	–	33 nM	60 nM

More lines, now with the values ahead:

Residual Activity (% remaining, 1 μM) [1]	Residual Activity (% remaining, 10 μM) [1]	IC50 [1, 3]	IC50 [2]	IC50 [1, 4]	SMILES
91.144 % remaining	55.946 % remaining	10000 to 50000 nM	–	–	O=C(c1ccccc1C(F)(F)F)N1CCN(c2ccc(NCCc3ccccc3)nn2)CC1 [Example 1.1, [4-(6-PHENETHYLAMINOPYRIDAZIN-3-YL)PIPERAZIN-1-YL]-(2-TRIFLUOROMETHYLPHENYL)METHANONE]
53.875 % remaining	29.330 % remaining	1000 to 10000 nM	–	–	O=C(c1ccccc1C(F)(F)F)N1CCN(c2ccc(OCCC3CC3)nn2)CC1 [Example 5.1, {4-[6-(2-CYCLOPROPYLETHOXY)PYRIDAZIN-3-YL]PIPERAZIN-1-YL}-(2-TRIFLUOROMETHYLPHENYL)METHANONE]
–	–	–	849 nM	447 nM	CC(C)CCSc1ccc(N2CCN(C(=O)c3ccccc3C(F)(F)F)CC2)nn1 [Example 6.1, {4-[6-(3-METHYLBUTYLSULFANYL)PYRIDAZIN-3-YL]PIPERAZIN-1-YL}-(2-TRIFLUOROMETHYL-PHENYL)METHANONE]
